# Measurements from ChEMBL document CHEMBL1201862, “PubChem BioAssay data set” (2004).
#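 Assay format: 96-well plates, 48-hour exposure. GI50: concentration for 50% inhibition of growth.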 Activity calls are given as the source filed them. Cut-off read from the data, not from the text of the source: active = GI50 up to about 1.1 µM and inactive = higher.
# What was measured:
# Assay in all cases: NCI anticancer screen, dose series, 48 h
# HL-60 = tested on: HL-60
# SNB-75 = tested on: SNB-75
# UACC-257 = tested on: UACC-257
# SK-MEL-5 = tested on: SK-MEL-5
# MDA-MB-435 = tested on: MDA-MB-435
# HOP-92 = tested on: HOP-92
# CCRF-CEM = tested on: CCRF-CEM
# OVCAR-4 = tested on: OVCAR-4
# NCI/ADR-RES = tested on: NCI/ADR-RES
# SF-539 = tested on: SF-539
# MDA-N = tested on: MDA-N
# CAKI-1 = tested on: CAKI-1
# NCI-H23 = tested on: NCI-H23
# SN12C = tested on: SN12C
# U-251 = tested on: U-251
# A549 = tested on: A549
# PC-3 = tested on: PC-3
# RPMI-8226 = tested on: RPMI-8226
# K562 = tested on: K562
# DU-145 = tested on: DU-145
Compound,GI50 (HL-60),GI50 (SNB-75),GI50 (UACC-257),GI50 (SK-MEL-5),GI50 (MDA-MB-435),GI50 (HOP-92),GI50 (CCRF-CEM),GI50 (OVCAR-4),GI50 (NCI/ADR-RES),GI50 (SF-539),GI50 (MDA-N),GI50 (CAKI-1),GI50 (NCI-H23),GI50 (SN12C),GI50 (U-251),GI50 (A549),GI50 (PC-3),GI50 (RPMI-8226),GI50 (K562),GI50 (DU-145)
N=C(N)NCCNC(=N)N,> 100 µM (inactive),89.9 µM (inactive),> 100 µM (inactive),> 100 µM (inactive),> 100 µM (inactive),> 100 µM (inactive),> 100 µM (inactive),> 100 µM (inactive),> 100 µM (inactive),> 100 µM (inactive),> 100 µM (inactive),> 100 µM (inactive),> 100 µM (inactive),85.1 µM (inactive),> 100 µM (inactive),> 100 µM (inactive),> 100 µM (inactive),> 100 µM (inactive),> 100 µM (inactive),> 100 µM (inactive)
CCN(CC)Cc1cc(/N=N\c2c(O)ccc3c(/N=N\c4ccc(O)c(CN(CC)CC)c4)c(O)ccc23)ccc1O,1.8 µM (inactive),6.28 µM (inactive),5.75 µM (inactive),2.47 µM (inactive),3.65 µM (inactive),4.58 µM (inactive),2.44 µM (inactive),1.77 µM (inactive),4.57 µM (inactive),2.73 µM (inactive),4.8 µM (inactive),2.1 µM (inactive),3.56 µM (inactive),3.92 µM (inactive),3.48 µM (inactive),2.42 µM (inactive),5.11 µM (inactive),1.68 µM (inactive),2.21 µM (inactive),2.65 µM (inactive)
O=C(CN1CCN(C(=O)OCc2ccccc2)CCN(CC(=O)N2CCCCC2)CCN(C(=O)OCc2ccccc2)CC1)N1CCCCC1,10.6 µM (inactive),4.22 µM (inactive),3.49 µM (inactive),6.87 µM (inactive),16.1 µM (inactive),12.9 µM (inactive),6.44 µM (inactive),4.8 µM (inactive),10.9 µM (inactive),14.6 µM (inactive),14.8 µM (inactive),5.04 µM (inactive),20.7 µM (inactive),11.6 µM (inactive),16.5 µM (inactive),20.8 µM (inactive),12.6 µM (inactive),13.4 µM (inactive),5.4 µM (inactive),21.4 µM (inactive)
CCN(CC)C(=S)N/N=C(/c1ccccc1)c1ccccn1,0.264 µM (active),0.875 µM (active),0.107 µM (active),0.209 µM (active),0.705 µM (active),1.65 µM (inactive),0.024 µM (active),0.504 µM (active),0.27 µM (active),0.343 µM (active),1.07 µM (active),0.805 µM (active),0.267 µM (active),0.214 µM (active),0.0995 µM (active),0.349 µM (active),0.212 µM (active),0.11 µM (active),0.185 µM (active),0.402 µM (active)
Cc1cccc2c(NCCCN(C)C)c3c([N+](=O)[O-])ccc(C)c3nc12,0.203 µM (active),0.186 µM (active),0.192 µM (active),0.082 µM (active),0.191 µM (active),0.0916 µM (active),0.423 µM (active),0.0628 µM (active),0.337 µM (active),0.263 µM (active),0.196 µM (active),0.2 µM (active),0.034 µM (active),0.221 µM (active),0.147 µM (active),0.101 µM (active),0.0494 µM (active),0.19 µM (active),0.115 µM (active),0.0887 µM (active)
O=C(CSc1nc2ccccc2c(=O)n1-c1ccccc1)N/N=C1\C(=O)Nc2ccc(Br)cc21,3.21 µM (inactive),3.01 µM (inactive),5.94 µM (inactive),2.58 µM (inactive),5.71 µM (inactive),2.7 µM (inactive),5.62 µM (inactive),2.58 µM (inactive),2.99 µM (inactive),2.1 µM (inactive),3.01 µM (inactive),2.48 µM (inactive),3.42 µM (inactive),1.71 µM (inactive),1.82 µM (inactive),2.3 µM (inactive),1.84 µM (inactive),2.72 µM (inactive),3.2 µM (inactive),2.13 µM (inactive)
NC(=O)c1cc2ccccc2o/c1=N/c1ccccc1,> 100 µM (inactive),> 100 µM (inactive),> 100 µM (inactive),> 100 µM (inactive),> 100 µM (inactive),> 100 µM (inactive),> 100 µM (inactive),> 100 µM (inactive),> 100 µM (inactive),> 100 µM (inactive),> 100 µM (inactive),> 100 µM (inactive),> 100 µM (inactive),> 100 µM (inactive),> 100 µM (inactive),> 100 µM (inactive),> 100 µM (inactive),> 100 µM (inactive),> 100 µM (inactive),> 100 µM (inactive)
COc1cc(C2S/C(=C/c3ccccc3)C(=O)N2c2cc(Cl)c(Cl)cc2Cl)cc(OC)c1OC (stereo not given),20.4 µM (inactive),2.56 µM (inactive),54.5 µM (inactive),22.5 µM (inactive),34 µM (inactive),13.7 µM (inactive),21.5 µM (inactive),52.6 µM (inactive),30.6 µM (inactive),25.6 µM (inactive),50.5 µM (inactive),> 40.8 µM (inactive),43.2 µM (inactive),> 59.8 µM (inactive),44.4 µM (inactive),35.6 µM (inactive),26.8 µM (inactive),24.6 µM (inactive),29 µM (inactive),30.2 µM (inactive)
Cc1ccc(NC(=O)c2cccc(OP(=O)(O)Nc3ccc(C)cc3)c2)cc1,> 100 µM (inactive),20.2 µM (inactive),> 100 µM (inactive),> 100 µM (inactive),> 100 µM (inactive),37.2 µM (inactive),> 100 µM (inactive),72.8 µM (inactive),> 100 µM (inactive),> 100 µM (inactive),63.5 µM (inactive),> 100 µM (inactive),> 100 µM (inactive),> 100 µM (inactive),> 100 µM (inactive),71.8 µM (inactive),> 100 µM (inactive),> 100 µM (inactive),> 100 µM (inactive),> 100 µM (inactive)
Nc1ccc2c(c1)Nc1c3ccccc3nc3cccc-2c13,3.66 µM (inactive),1.4 µM (inactive),2 µM (inactive),1.75 µM (inactive),1.81 µM (inactive),1.6 µM (inactive),3.85 µM (inactive),1.72 µM (inactive),1.66 µM (inactive),1.66 µM (inactive),1.42 µM (inactive),1.54 µM (inactive),1.48 µM (inactive),1.29 µM (inactive),1.53 µM (inactive),1.36 µM (inactive),1.54 µM (inactive),1.84 µM (inactive),0.416 µM (active),1.59 µM (inactive)
C=C1C(=O)O[C@@H]2C(=O)[C@@H](C)[C@@H]3C=CC(=O)[C@@]3(C)[C@@H](OC(=O)/C(C)=C\C)[C@H]12 [MULTISTATIN],0.132 µM (active),5.53 µM (inactive),1.47 µM (inactive),1.68 µM (inactive),1.29 µM (inactive),0.393 µM (active),0.168 µM (active),5.04 µM (inactive),2.37 µM (inactive),1.84 µM (inactive),0.675 µM (active),0.264 µM (active),2.88 µM (inactive),1.42 µM (inactive),2.43 µM (inactive),10.6 µM (inactive),2.29 µM (inactive),0.327 µM (active),0.293 µM (active),1.57 µM (inactive)
